# Reference: patent US10738056B2 (Aduro BioTech, Inc., priority 2017, dated 2020)
# Like-named read-outs stand apart in the source and are kept apart here.
# What was measured:
# [1] = target: Human cGAS amino acids 155-522 (Homo sapiens (Human), UniProt Q8N884); assay: cGAS biochemical activity assay (ATP remaining, Kinase-Glo Max luminescence); conditions: human cGAS 155-522, ATP remaining (Kinase-Glo Max); read-out: cGAS IC50
# [2] = tested on: cGAS/STING pathway in THP1 cells; assay: THP1 cell-based cGAS/STING pathway activity assay (IRF-3-linked luciferase reporter)
# Outline: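 THP1 cells carrying an IRF-3-driven luciferase reporter were read across a range of compound concentrations, and IC50 values were derived from these concentration responses; the assay upper limit was 100 μM.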
# [3] = tested on: MCP-1/CCL2 secretion by Trex1-KO BMM; assay: Inhibition of MCP-1/CCL2 secretion by Trex1-KO bone marrow-derived macrophages; type: cell-based, mice; parameters: key to BMM IC50 M (MCP-1): A: an IC50 value less than 5 μM; B: an IC50 value between 5 and 20 μM; where an IC50 value could not be calculated from the data; conditions: MCP-1 secretion
# Experimental: (§1) A cellular assay can be used to asses the compounds of the invention for their ability to inhibit cytokine production. Bone marrow macrophages harvested from mice can be used to determine response as a function of compound concentration.
# (§2) The inhibition of secreted cytokine was measured in bone marrow-derived macrophages (BMMs) from diseased mice to evaluate the potency of compounds of the invention as described herein. […] To derive bone marrow macrophages, marrow extracted from the femurs and tibias were harvested from Trex1-KO mice was cultured in growth media supplemented with macrophage colony-stimulating factor (M-CSF). Differentiated BMM were harvested and frozen for subsequent experimentation. For treatment with compound C1089 (see Example 13), a frozen stock of Trex1-KO BMM was thawed and 1×10^5 cells were plated in 96 well format. BMMs were treated with a dilution series of C1089 and incubated overnight at 37° C. 5% CO2, at which point cellular supernatants were harvested and stored at −80° C. for subsequent analysis. The media used for this dilution series was without FBS. Remaining cells were evaluated for viability using Cell Titer Glo 2.0 kit according to the manufacturer instructions. BMM supernatants were evaluated for the secreted cytokine […] (RANTES/CCL5) or for secreted cytokine monocyte chemoattractant protein 1 (MCP-1/CCL2) using cytometric bead array mouse Flex Set kits (BD Biosciences). Cytokine concentration was calculated from a standard curve and normalized to vehicle (DMSO) treated cells.
# [4] = tested on: RANTES/CCL5 secretion by Trex1-KO BMM; assay: Inhibition of RANTES/CCL5 secretion by Trex1-KO bone marrow-derived macrophages; type: cell-based, mice; parameters: key to BMM IC50 R (RANTES): A: an IC50 value less than 5 μM; B: an IC50 value between 5 and 20 μM; where an IC50 value could not be calculated from the data; conditions: RANTES secretion
# Experimental: as §1, §2
# Human cGAS amino acids 155-522, sequence (Q8N884 157-522): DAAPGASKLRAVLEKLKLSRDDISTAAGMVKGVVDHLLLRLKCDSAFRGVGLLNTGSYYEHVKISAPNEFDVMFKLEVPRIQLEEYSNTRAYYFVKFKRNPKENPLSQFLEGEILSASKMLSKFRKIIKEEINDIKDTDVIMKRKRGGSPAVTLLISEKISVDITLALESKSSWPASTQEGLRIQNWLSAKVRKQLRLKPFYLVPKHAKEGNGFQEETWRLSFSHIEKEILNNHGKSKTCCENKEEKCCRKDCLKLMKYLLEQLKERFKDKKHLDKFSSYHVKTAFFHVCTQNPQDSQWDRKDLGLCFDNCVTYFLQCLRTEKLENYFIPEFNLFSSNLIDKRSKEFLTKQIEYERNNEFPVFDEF
Compound,IC50 [1] [µM],"IC50 ([2]; Homo sapiens, THP-1) [µM]",BMM IC50 M (MCP-1) [3],BMM IC50 R (RANTES) [4],IC50 ([2]; read-out: THP-1 IC50) [µM]
"COc1ccccc1NC(=O)c1c(C)[nH]c2c(C3CCCC3)c(C(F)(F)F)nn2c1=O [Compound A1052, 3-cyclopentyl-N-(2-methoxyphenyl)-5-methyl-7-oxo-2-(trifluoromethyl)-4,7-dihydropyrazolo[1,5-a]pyrimidine-6-carboxamide]",20 to 250,,C,,
"COCc1[nH]c2c(-c3ccccc3)c(C(F)(F)F)nn2c(=O)c1-c1c(COC)[nH]c2c(-c3ccccc3)c(C(F)(F)F)nn2c1=O [Compound C1029, 5,5′-bis(methoxymethyl)-3,3′-diphenyl-2,2′-bis(trifluoromethyl)-[6,6′-bipyrazolo[1,5-a]pyrimidine]-7,7′(4H,4′H)-dione]",20 to 250,,C,C,
"COc1cccc2oc(-c3c(C)[nH]c4c(-c5ccccc5)c(C(F)(F)F)nn4c3=O)nc12 [Compound C1014, 6-(4-methoxybenzo[d]oxazol-2-yl)-5-methyl-3-phenyl-2-(trifluoromethyl)pyrazolo[1,5-a]pyrimidin-7(4H)-one]",< 20,< 20,C,,
"CCOC(=O)Cc1[nH]c2c(-c3ccccc3)c(C(F)(F)F)nn2c(=O)c1-c1nc2c(OC)cccc2o1 [Compound C1140, ethyl 2-(6-(4-methoxybenzo[d]oxazol-2-yl)-7-oxo-3-phenyl-2-(trifluoromethyl)-4,7-dihydropyrazolo[1,5-a]pyrimidin-5-yl)acetate]",20 to 250,,C,C,
"COc1cccc2c1nc(-c1c(C)[nH]c3c(-c4ccccc4)c(C(F)(F)F)nn3c1=O)n2C1CCCCC1 [Compound C1176, 6-(1-cyclohexyl-4-methoxy-1H-benzo[d]imidazol-2-yl)-5-methyl-3-phenyl-2-(trifluoromethyl)pyrazolo[1,5-a]pyrimidin-7(4H)-one]",20 to 250,,C,C,
"COc1cccc2oc(-c3c(C4CCC(CO)C4)[nH]c4c(-c5ccccc5)c(C(F)(F)F)nn4c3=O)nc12 (stereo not drawn) [Compound C1236, 5-(3-(hydroxymethyl)cyclopentyl)-6-(4-methoxybenzo[d]oxazol-2-yl)-3-phenyl-2-(trifluoromethyl)pyrazolo[1,5-a]pyrimidin-7(4H)-one]",< 20,,C,C,
"COCc1[nH]c2c(-c3ccccc3)c(C(F)(F)F)nn2c(=O)c1-c1nc2c(OC)cccc2o1 [Compound C1056, 6-(4-methoxybenzo[d]oxazol-2-yl)-5-(methoxymethyl)-3-phenyl-2-(trifluoromethyl)pyrazolo[1,5-a]pyrimidin-7(4H)-one]",< 20,< 20,C,,
"CC(=O)NCCOc1cccc2oc(-c3c(C)[nH]c4c(-c5ccccc5)c(C(F)(F)F)nn4c3=O)nc12 [Compound C1062, N-(2-((2-(5-methyl-7-oxo-3-phenyl-2-(trifluoromethyl)-4,7-dihydropyrazolo[1,5-a]pyrimidin-6-yl)benzo[d]oxazol-4-yl)oxy)ethyl)acetamide]",< 20,> 100,,,
CO[C@@H]1CCCC[C@H]1c1nnc(-c2c(C)[nH]c3c(-c4ccccc4)c(C(F)(F)F)nn3c2=O)o1 [D1046 Iso-3],< 20,,,,> 100
"CSc1cccc2oc(-c3c(C)[nH]c4c(-c5ccccc5)c(C#N)nn4c3=O)nc12 [Compound C1204, 5-methyl-6-(4-(methylthio)benzo[d]oxazol-2-yl)-7-oxo-3-phenyl-4,7-dihydropyrazolo[1,5-a]pyrimidine-2-carbonitrile]",< 20,> 100,,,

# The next lines start with the values.
IC50 [1] [µM],"IC50 ([2]; Homo sapiens, THP-1) [µM]",BMM IC50 M (MCP-1) [3],BMM IC50 R (RANTES) [4],IC50 ([2]; read-out: THP-1 IC50) [µM],Compound
20 to 250,> 100,C,,,"Cc1[nH]c2c(-c3ccccc3)c(C(F)(F)F)nn2c(=O)c1-c1nc2cccc(N)c2[nH]1 [Compound C1008, 6-(7-amino-1H-benzo[d]imidazol-2-yl)-5-methyl-3-phenyl-2-(trifluoromethyl)pyrazolo[1,5-a]pyrimidin-7(4H)-one]"
< 20,> 100,C,C,,"COc1ccc(Cl)c2oc(-c3c(C)[nH]c4c(-c5ccccc5)c(C#N)nn4c3=O)nc12 [Compound C1205, 6-(7-chloro-4-methoxybenzo[d]oxazol-2-yl)-5-methyl-7-oxo-3-phenyl-4,7-dihydropyrazolo[1,5-a]pyrimidine-2-carbonitrile]"
20 to 250,,C,C,,"COc1cccc2oc(-c3c(CC(=O)O)[nH]c4c(-c5ccccc5)c(C(F)(F)F)nn4c3=O)nc12 [Compound C1147, 2-(6-(4-methoxybenzo[d]oxazol-2-yl)-7-oxo-3-phenyl-2-(trifluoromethyl)-4,7-dihydropyrazolo[1,5-a]pyrimidin-5-yl)acetic acid]"
20 to 250,,C,C,,"Cc1[nH]c2c(-c3ccccc3)c(C(F)(F)F)nn2c(=O)c1-c1nc2ccccc2n1C1CCCCC1 [Compound C1190, 6-(1-cyclohexyl-1H-benzo[d]imidazol-2-yl)-5-methyl-3-phenyl-2-(trifluoromethyl)pyrazolo[1,5-a]pyrimidin-7(4H)-one]"
< 20,< 20,C,,,"Cc1[nH]c2c(-c3ccccc3)c(C(F)(F)F)nn2c(=O)c1C(=O)Nc1ccccc1NS(=O)(=O)c1ccccc1 [Compound A1059, 5-methyl-7-oxo-3-phenyl-N-(2-(phenylsulfonamido)phenyl)-2-(trifluoromethyl)-4,7-dihydropyrazolo[1,5-a]pyrimidine-6-carboxamide]"
< 20,> 100,,,,"Cc1[nH]c2c(-c3ccccc3)c(C(F)(F)F)nn2c(=O)c1-c1nn(C(C)C)c(=O)o1 [Compound C1023, 3-isopropyl-5-(5-methyl-7-oxo-3-phenyl-2-(trifluoromethyl)-4,7-dihydropyrazolo[1,5-a]pyrimidin-6-yl)-1,3,4-oxadiazol-2(3H)-one]"
< 20,> 100,,,,"COc1c(Cl)ccc2oc(-c3c(C)[nH]c4c(-c5ccccc5)c(C#N)nn4c3=O)nc12 [Compound C1206, 6-(5-chloro-4-methoxybenzo[d]oxazol-2-yl)-5-methyl-7-oxo-3-phenyl-4,7-dihydropyrazolo[1,5-a]pyrimidine-2-carbonitrile]"
< 20,< 20,,,,"COc1ccc(C(C)=O)c2oc(-c3c(C)[nH]c4c(-c5ccccc5)c(C(F)(F)F)nn4c3=O)nc12 [Compound C1111, 6-(7-acetyl-4-methoxybenzo[d]oxazol-2-yl)-5-methyl-3-phenyl-2-(trifluoromethyl)pyrazolo[1,5-a]pyrimidin-7(4H)-one]"
< 20,> 100,,,,"Cc1[nH]c2c(-c3ccccc3)c(C(F)(F)F)nn2c(=O)c1-c1ncco1 [Compound C1170, 5-methyl-6-(oxazol-2-yl)-3-phenyl-2-(trifluoromethyl)pyrazolo[1,5-a]pyrimidin-7(4H)-one]"
> 250,20 to 100,,,,"Cc1[nH]c2c(C(C)C)c(C(F)(F)F)nn2c(=O)c1-c1ccccc1 [Compound C1269, 3-isopropyl-5-methyl-6-phenyl-2-(trifluoromethyl)pyrazolo[1,5-a]pyrimidin-7(4H)-one]"
< 20,20 to 100,,,,"COc1cccc2nc(-c3c(C)[nH]c4c(-c5ccccc5)c(C(F)(F)F)nn4c3=O)oc12 [Compound C1022, 6-(7-methoxybenzo[d]oxazol-2-yl)-5-methyl-3-phenyl-2-(trifluoromethyl)pyrazolo[1,5-a]pyrimidin-7(4H)-one]"
< 20,20 to 100,,,,"COc1cccc2oc(-c3c(COCC(F)F)[nH]c4c(-c5ccccc5)c(C(F)(F)F)nn4c3=O)nc12 [Compound C1232, 5-((2,2-difluoroethoxy)methyl)-6-(4-methoxybenzo[d]oxazol-2-yl)-3-phenyl-2-(trifluoromethyl)pyrazolo[1,5-a]pyrimidin-7(4H)-one]"
< 20,< 20,,,,"Cc1[nH]c2c(-c3ccccc3)c(C(F)(F)F)nn2c(=O)c1C(=O)Nc1cccc2c1OCCC2 [Compound A1107, N-(chroman-8-yl)-5-methyl-7-oxo-3-phenyl-2-(trifluoromethyl)-4,7-dihydropyrazolo[1,5-a]pyrimidine-6-carboxamide]"
< 20,20 to 100,,,,"Cc1nn2c(=O)c(-c3nc4c(o3)CCCC4)c(C)[nH]c2c1-c1ccccc1 [Compound C1032, 2,5-dimethyl-3-phenyl-6-(4,5,6,7-tetrahydrobenzo[d]oxazol-2-yl)pyrazolo[1,5-a]pyrimidin-7(4H)-one]"
